The test system of data set [1] is Oryctolagus cuniculus. Kind of data set: Compound was evaluated for the intraocular pressure (IOP) in normal rabbits following topical dosing after 100 min. The class given is functional, Eye.
The subject of data set [2] is Oryctolagus cuniculus. In words: Compound was evaluated for the intraocular pressure (IOP) in normal rabbits following topical dosing after 120 min. The class given is functional, Eye.
The test system of data set [3] is Oryctolagus cuniculus. In words: Compound was evaluated for the intraocular pressure (IOP) in normal rabbits following topical dosing after 140 min. The class given is functional, Eye.
Data set [4] concerns Oryctolagus cuniculus. In words: Compound was evaluated for the intraocular pressure (IOP) in normal rabbits following topical dosing after 160 min. In kind it is functional, Eye.
In data set [5] the test system is Oryctolagus cuniculus. In words: Compound was evaluated for the intraocular pressure (IOP) in normal rabbits following topical dosing after 180 min. The class given is functional, Eye.
Data set [6] has as its system Oryctolagus cuniculus. Kind of data set: Compound was evaluated for the intraocular pressure (IOP) in normal rabbits following topical dosing after 20 min. The class given is functional, Eye.
The test system of data set [7] is Oryctolagus cuniculus. In words: Compound was evaluated for the intraocular pressure (IOP) in normal rabbits following topical dosing after 40 min. In kind it is functional, Eye.
Data set [8] concerns Oryctolagus cuniculus. In words: Compound was evaluated for the intraocular pressure (IOP) in normal rabbits following topical dosing after 60 min. The class given is functional, Eye.
The subject of data set [9] is Oryctolagus cuniculus. Kind of data set: Compound was evaluated for the intraocular pressure (IOP) in normal rabbits following topical dosing after 80 min. The class given is functional, Eye.
For data set [10], the target named is Carbonic anhydrase.
Data set [11] deals with Oryctolagus cuniculus. In words: Compound was evaluated for the intraocular pressure (IOP) in normal rabbits following topical dosing after 10 min. The class given is functional, Eye.
Data set [12] relates to Oryctolagus cuniculus. In words: Compound was evaluated for the intraocular pressure (IOP) in normal rabbits following topical dosing after 110 min. The class given is functional, Eye.
For data set [13], the system named is Oryctolagus cuniculus. Kind of data set: Compound was evaluated for the intraocular pressure (IOP) in normal rabbits following topical dosing after 30 min. The class given is functional, Eye.
In data set [14] the test system is Oryctolagus cuniculus. In words: Compound was evaluated for the intraocular pressure (IOP) in normal rabbits following topical dosing after 50 min. In kind it is functional, Eye.
In data set [15] the test system is Oryctolagus cuniculus. Kind of data set: Compound was evaluated for the intraocular pressure (IOP) in normal rabbits following topical dosing after 70 min. In kind it is functional, Eye.
The test system of data set [16] is Oryctolagus cuniculus. Kind of data set: Compound was evaluated for the intraocular pressure (IOP) in normal rabbits following topical dosing after 90 min. The class given is functional, Eye.
For data set [17] the following is noted: buffer, pH 7.2.
Description: Solubility, pH 7.2 phosphate buffer at 32 degree C
Data set [18] can be described thus: physchem. The note with it: octanol/pH 7.2 phosphate buffer.
Description: Compound was evaluated for Octanol/pH 7.2 phosphate buffer distribution coefficient
Data set [19] can be described thus: physchem.
Description: Compound was evaluated for pKa
Data set [20] deals with Carbonic anhydrase. Kind of data set: Compound was evaluated for the inhibition of Carbonic anhydrase (Competitive). In kind it is protein assay.

This note sets out measurements from ChEMBL document CHEMBL1123344, “N-Substituted sulfonamide carbonic anhydrase inhibitors with topical effects on intraocular pressure” (J Med Chem, 1986).

Molecules are shown by their SMILES.

A word on the Ki: it is the dissociation constant of the complex between target and ligand, obtained from inhibition or displacement. Read a low Ki as a stronger hold on the target. For orientation: Papp means the rate of passage across a membrane or cell layer, normalised by area and donor concentration. A lower Papp goes with slow passage. In general, logD refers to lipophilicity at a set pH, counting ionised and neutral species. A high value points to higher lipophilicity. In general, pKa refers to the negative logarithm of the acid dissociation constant. A lower pKa goes with a group that gives up its proton readily.

Turning to `CN(O)S(=O)(=O)c1ccc(Cl)cc1`, the IOP is 0.67 mmHg in [1]; 0.33 mmHg in data set [2]; -0.33 mmHg in [3]; -0.25 mmHg in data set [4]; -0.25 mmHg in data set [5]; 0.17 mmHg in data set [6]. Moreover, the IOP is given as 1 mmHg in [7], -1.25 mmHg in data set [8] and 0.17 mmHg in data set [9]. The compound also had a Ki in data set [10] of 107 nM.
In the case of `CN(O)S(=O)(=O)c1ccc([N+](=O)[O-])cc1`, the IOP in data set [11] was 0.33 mmHg; in data set [1], -0.5 mmHg; in data set [12], -0.33 mmHg; in data set [2], -1 mmHg; in [6], -0.33 mmHg; in data set [13], -0.67 mmHg. Besides, the IOP in [7] is on record as -1.67 mmHg; in [14], -1.83 mmHg; in [8], -1.67 mmHg; in [15] it was -2 mmHg; in data set [9] it was -1.67 mmHg; in data set [16] it was 0.2 mmHg. This compound also yielded a Ki in [10] of 44 nM.
In data set [10], `CNS(=O)(=O)c1ccc([N+](=O)[O-])cc1` returned a Ki of 146 nM.
Consider `CNS(=O)(=O)c1ccc(Cl)cc1`, for which the Papp amounted to 65.1 ×10⁻⁶ cm/s. The compound also showed a Solubility in data set [17] of 0.0208 M l-1. The same compound registered a Ki in data set [10] of 584 nM. The compound also registered a logD in data set [18] of 1.92. For the same compound, in data set [19], the pKa was 11.
For the compound `NS(=O)(=O)c1ccc(Cl)cc1` [P-CHLOROBENZENESULFONAMIDE], the Papp turned out to be 54.7 ×10⁻⁶ cm/s. Besides, in data set [17], the Solubility is listed as 0.0223 M l-1. This compound displayed a log distribution coefficient (logD) in data set [18] of 1.24. This compound also had a pKa in data set [19] of 9.95.
For `CNS(=O)(=O)c1nnc(NC(C)=O)s1`, the Papp was 2.26 ×10⁻⁶ cm/s. Further, the Ki in [20] stood at 258 nM. Further, the Solubility in [17] turned out to be 0.00144 M l-1. Further, the pH-dependent lipophilicity (logD) in data set [18] turned out to be 0.32. In data set [19], this compound returned a pKa of 7.52.
